This is an account of results in US4877782A, “Zinc ceftiofur complexes” (The Upjohn Company, priority 1988, dated 1989).

Counter-ions that a name gives are not always drawn. Like-named read-outs stand apart in the source and are kept apart here.

The test system of data set [1] is Salmonella typhimurium UC6164. Put plainly: standard mouse challenge test against Salmonella typhimurium UC6164 (survival, ED50). Format: in vivo. Conditions: for ED50: mice, s.c., adjusted for drug potency, 95% confidence limits. The procedure:
(§1) Each test compound was suspended or dissolved in sterile Vehicle 122 (0.025% carboxymethylcellulose in water) to a starting test concentration sufficient to provide in the first set of test animals a concentration of the test drug of 2 mg./kg. Portions of each such test drug formulation were diluted seriatim 50:50 v/v with water to reduce the concentration of the test drug in the test animal to 1 mg./kg., then to 0.5 mg./kg., to 0.25 mg./kg. and finally to 0.125 mg./kg. Sets of mice were injected with the test dilutions of the test drugs subcutaneously once or three times after injecting challenge doses lethal doses of one of the above-named bacterial organisms. The sets of animals were observed over six days to determine the number of surviving mice. The mortality ratios were noted and the ED50 values were calculated for each test drug by standard methods.

The test system of data set [2] is Pasteurella multocida UC9581. Put plainly: standard mouse challenge test against Pasteurella multocida UC9581 (survival, ED50). As to conditions: for ED50: mice, s.c., adjusted for drug potency, 95% confidence limits. The class given is in vivo. On the procedure: as §1
A short description of data set [3]: dissolution rate in water. Format: physicochemical. As to conditions: for percent in aqueous solution in 20 minutes: ceftiofur hydrochloride unmicronized.
A short description of the next data set: bulk density. Format: physicochemical.
A short description of data set [4]: dispersibility in water, organic solvents and vegetable oils. The class given is physicochemical. Conditions: in words.
The mark [5] stands for this setting: mouse challenge, in words, from ED50 numbers of Table I.
Setting [6] is: 20 minutes, comparable equilibration conditions.
The mark [7] stands for this setting: zinc ceftiofur hydrochloride vs. non-complexed hydrochloride salt.

“zinc ceftiofur hydrochloride complex [Compound II]”: the ED50 (as a rule, the midpoint of the dose-response relation) in data set [1] (UC6164, 579 LD50's, 1X treatment, 8640 min) came to 1.0 mg/kg/day; in data set [1] (UC6164, 1000 LD50's, 1X treatment, 8640 min), 3.3 mg/kg/day; in data set [1] (UC6164, 1000 LD50's, 3X treatments, 8640 min), 2.1 mg/kg/day; in data set [2] (UC9581, 27 LD50's, 3X treatments, 8640 min), 0.4 mg/kg/day; in data set [2] (UC9581, 303 LD50's, 1X treatment, 8640 min), 0.3 mg/kg/day. Also, the antibiotic protection result in data set [1] (setting [5]) and in data set [2] (setting [5]) was “potent antibiotic protection” throughout. Further, in data set [3] (setting [6]), the “percent in aqueous solution in 20 minutes” value is 48%. Further, the rate of dissolution result in data set [3] (in words, compared to ceftiofur hydrochloride) is listed as “much slower compared to ceftiofur hydrochloride”. Besides, the bulk density result in the data set “bulk density” (setting [7]) is listed as “about 0.24 g./ml”. The “dispersibility in water and in common pharmaceutical organic solvents and vegetable oils” value in data set [4] (granular powders) is reported as “readily dispersible in water”.

Turning to `CO/N=C(\C(=O)N[C@@H]1C(=O)N2C(C(=O)O)=C(CSC(=O)c3ccco3)CS[C@H]12)c1csc(N)n1` [ceftiofur hydrochloride], the ED50 in data set [1] (Salmonella enterica, sc, 144 h, UC6164, 579 LD50's, 1X treatment, read-out: ED50) came to 1.7 mg/kg; in data set [1] (Salmonella enterica, sc, 144 h, UC6164, 1000 LD50's, 1X treatment, read-out: ED50), 1.3 mg/kg; in data set [1] (Salmonella enterica, sc, 144 h, UC6164, 1000 LD50's, 3X treatments, read-out: ED50), 2.3 mg/kg; in data set [2] (Pasteurella multocida, sc, 144 h, UC9581, 27 LD50's, 3X treatments, read-out: ED50), 0.3 mg/kg. In data set [3] (setting [6]), the “percent in aqueous solution in 20 minutes” value came to 74%. In “bulk density” (setting [7]), the bulk density came to 0.15 g/mL. The “distribution in pharmaceutical aqueous vehicle formulations” value in data set [4] was “less well adapted for distribution in pharmaceutical aqueous vehicle formulations”.

In data set [1] (UC6164, 1000 LD50's, 1X treatment, 8640 min, listed as C--Na), `CO/N=C(\C(=O)N[C@@H]1C(=O)N2C(C(=O)O)=C(CSC(=O)c3ccco3)CS[C@H]12)c1csc(N)n1` [ceftiofur sodium] came in with an ED50 of 1.1 mg/kg/day. In data set [3] (20 minutes, comparable equilibration conditions, zinc complex unmicronized), the “solubility in water after 20 minutes” value was determined as 100%. Also, the “dissolution rate curves (percent dissolved over time)” value in data set [3] (in words, compared with sodium ceftiofur and ceftiofur hydrochloride) was “dissolves quite quickly in water”. In addition, the bulk density in the data set “bulk density” (zinc ceftiofur sodium complex from water vs. ceftiofur sodium salt) stood at 0.11 g/mL.
